Experimental data taken from paper PMC6695674, “Bioluminescence Resonance Energy Transfer Based G Protein-Activation Assay to Probe Duration of Antagonism at the Histamine H3 Receptor” (International Journal of Molecular Sciences, 2019).
Read-outs that look alike come from different tables or passages of the source. Blank lines part the entries; values can stand above or below the compound they belong to.

Experiments:
[1] = molecular target: T1, human histamine H3 receptor (hH3R) (Homo sapiens, UniProt Q9Y5N1); experiment: BRET between Venus-Gβ1γ2 and masGRK3ct-Nluc to measure hH3R-induced Gαi2 activation in HEK293T cells; format: cell-based; conditions: for agonist efficacy class in the Gβ1γ2 release assay: HEK293T cells co-expressing hH3R and Gαi2; for pEC50 ± S.E.M. / intrinsic activity (α): hH3R-mediated Gαi2 activation in HEK293T cells; for pEC50 ± S.E.M.: BRET ratio after 10 min, mean ± S.E.M. of three experiments; for inhibition of Venus-Gβ1γ2 recruitment to masGRK3ct-Nluc in response to 1 µM histamine: antagonist 10 µM
T1 construct: expressed in transfected cells; host or cells: HEK293T cells, transient transfection (hH3R in pcDEF3)
Protocol: Cells were transiently transfected in a 10 cm^2 dish with plasmids coding for Venus155-239-Gβ1 (0.4 µg), Venus1-155-Gγ2 (0.4 µg), masGRK3ct-Nluc (0.4 µg), hH3R (0.4 µg), Gαi2-protein (1.2 µg), and empty pcDEF3 (2.2 µg) using 20 µg 25 kDa linear polyethylenimine (Polysciences Inc, Warrington, PA, USA), as previously described. The next day, 50,000 cells/well were transferred to a poly-L-lysine coated black 96 well plates (Greiner Bio-one GmbH, Frickenhausen, Germany) and grown for an additional 24 h.
(§1) Agonist-induced BRET between Venus-Gβ1γ2 and masGRK3ct-Nluc was measured on adherent HEK293T cells co-expressing hH3R and Gαi2 in the presence of NanoGlo® (3.2 µL/mL) using a Mithras LB940 multimode microplate reader (Berthold, Germany). Cells were stimulated with histamine in the absence and presence of antagonist in HBSS buffer, and BRET (540–40 nm) and luminescence (480–20 nm) signals were monitored either immediately or after 10 min at 25 °C. […] Next, cells were incubated in HBSS and stimulated with 10 μM imetit after various incubation times. BRET between Venus-G1βγ2 and masGRK3ct-Nluc was immediately measured upon imetit stimulation and BRET ratio after 10 s were plotted. Re-equilibration of pre-bound antagonists was measured upon pre-incubation of the cells with increasing concentrations of antagonist for one hour prior to the addition of increasing concentrations imetit or VUF8328 and BRET ratio was calculated either immediately after agonist addition (0–3 min) or after 10 min re-equilibration.
Ligand-induced BRET changes were calculated by dividing emission at 540–40 nm (Venus) by emission at 480–20 nm (Nluc) and baseline-corrected by subtracting BRET of vehicle. […] Agonist and antagonist concentration-response curves were fitted to three-parameter response models to obtain EC50 and IC50 values, respectively. […] For receptor recovery the vehicle corrected BRET ratio at 10 s after agonist addition was plotted over time.

hH3R [2] = conditions: previously reported competition binding studies, cited from earlier work
[3] = molecular target: T1, human histamine H3 receptor (hH3R); experiment: Recovery of hH3R responsiveness after washout of pre-bound antagonist (BRET Gβ1γ2 release assay); format: cell-based; conditions: for RecT (receptor recovery time, 1/krec): 1 h pre-incubation at 10 × IC50, washout, 10 µM imetit, measured in singlo; for recovery of H3R-induced Gβ1γ2 release to steady-state level upon washout: agonist stimulation after washout of pre-bound antagonist
Protocol: Cells were then stimulated with a saturating concentration of imetit (10 µM) after different time intervals and BRET changes between Venus-Gβ1γ2 and masGRK3ct-Nluc were measured directly and BRET ratio 10 s after agonist stimulation were plotted (Figure 2A,B).
as §1
The receptor recovery time (RecT) was calculated as the reciprocal of the krec.

[4] = molecular target: T1, human histamine H3 receptor (hH3R); experiment: Re-equilibration of pre-bound antagonist, Schild-plot analysis (BRET Gβ1γ2 release assay); format: cell-based; conditions: for type of antagonism after 10 min re-equilibration: VUF8328, 1 h antagonist pre-incubation; for type of antagonism, response measured directly following agonist stimulation: imetit or VUF8328, 1 h antagonist pre-incubation
Protocol: Receptor-induced Venus-Gβ1γ2 recruitment to masGRK3ct-Nluc can be detected after different time intervals following stimulation with agonist, which offers the opportunity to evaluate the re-equilibration time of pre-bound antagonist within the same agonist-induced response. Cells were pre-incubated for 1 h with multiple concentrations of antagonist and subsequently stimulated with increasing concentrations agonist and BRET ratio was calculated either immediately after agonist addition or after 10 min re-equilibration (Figure 3A).
as §1
Equiactive agonist concentrations for Schild analysis were determined from concentration response curves at 10 % max agonist response (vide supra) in the absence and presence of increasing antagonist concentrations. Dose ratios (DR) were calculated by dividing the equiactive agonist concentration in the presence of antagonist by the equiactive agonist concentration in the absence of antagonist.

hH3R [5] = test system: hH3R; design: method as in PMID 30249614; conditions: CAMYEL biosensor; cited from earlier work
H3R = test system: H3R; design: method as in PMID 30249614, PMID 30359639; conditions: intact HEK293T cells; cited from earlier work
[6] = 1 h antagonist pre-incubation, agonist VUF8328, BRET after 10 min re-equilibration
[7] = 1 h antagonist pre-incubation, agonist VUF8328, BRET measured immediately
[8] = 1 h antagonist pre-incubation, agonist imetit, BRET measured immediately

T1 sequence (Q9Y5N1 whole entry): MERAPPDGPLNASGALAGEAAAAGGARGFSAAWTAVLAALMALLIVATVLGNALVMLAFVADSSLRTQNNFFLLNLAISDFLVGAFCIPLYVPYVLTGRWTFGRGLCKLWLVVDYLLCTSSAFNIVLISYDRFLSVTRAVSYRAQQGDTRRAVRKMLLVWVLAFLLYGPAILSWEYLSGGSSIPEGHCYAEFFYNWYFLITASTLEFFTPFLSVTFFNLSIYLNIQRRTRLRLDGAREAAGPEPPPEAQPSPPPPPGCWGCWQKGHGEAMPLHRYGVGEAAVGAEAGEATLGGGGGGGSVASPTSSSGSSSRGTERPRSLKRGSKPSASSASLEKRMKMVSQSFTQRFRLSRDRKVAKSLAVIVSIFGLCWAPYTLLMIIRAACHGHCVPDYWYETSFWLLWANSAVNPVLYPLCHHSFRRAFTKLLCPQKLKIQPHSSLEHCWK

agonist efficacy class in the Gβ1γ2 release assay [1]: partial agonist | pEC50 ± S.E.M. [1]: 9.4 ± 0.1 | intrinsic activity (α) ([1]; mean ± S.E.M.): 0.7 ± 0.2
Compound: N=C(N)SCCCc1cnc[nH]1 [VUF8328]
pKi (hH3R [2]; agonists): 8.5

RecT (receptor recovery time, 1/krec) [3]: 3.6 ± 0.3 min | hH3R recovery slower than upon washout of iodophenpropit and pitolisant ([3]; after antagonist washout): 2 to 2.5 fold | recovery of H3R-induced Gβ1γ2 release to steady-state level upon washout [3]: < 20 min | Schild slope, VUF8328 (10 min) [4, 6]: 1.2 ± 0.1 | pA2, VUF8328 (10 min) [4, 6]: 9.6 ± 0.2 | Schild slope, VUF8328 (0 min) [4, 7]: 1.5 ± 0.2 | pA2, VUF8328 (0 min) [4, 7]: 9.3 ± 0.2 | Schild slope, Imetit (0 min) [4, 8]: 1.0 ± 0.1 | pA2, Imetit (0 min) [4, 8]: 9.8 ± 0.1 | type of antagonism after 10 min re-equilibration [4]: near-surmountable | type of antagonism, response measured directly following agonist stimulation [4]: insurmountable antagonists | pKB ([1]; calculated from IC50 values, inhibition of histamine-induced (1 µM) BRET ratio, 10 min, mean ± S.E.M.): 9.9 ± 0.1
Compound: CCNC(=O)[C@H]1C[C@@](F)(c2ccc(CN3CCCC3)c(F)c2)C1 [PF03654746]
pKi (hH3R [2]; antagonists): 9.3 | residence time (H3R): approximately 15 min

inhibition of Venus-Gβ1γ2 recruitment to masGRK3ct-Nluc in response to 1 µM histamine [1]: ineffective
Compound: CN1CCN(C(=O)c2cc3cc(Cl)ccc3[nH]2)CC1 [JNJ7777120]

Continued, compound first:

Compound: c1ncc(CC2CCNCC2)[nH]1 [immepip]
agonist efficacy class in the Gβ1γ2 release assay [1]: full agonist | pEC50 ± S.E.M. [1]: 9.9 ± 0.1 | intrinsic activity (α) ([1]; mean ± S.E.M.): 1.0 ± 0.1 | pKi (hH3R [2]; agonists): 8.8

Compound: Clc1ccc(CCCOCCCN2CCCCC2)cc1 [Pitolisant]
RecT (receptor recovery time, 1/krec) [3]: 1.7 ± 0.3 min | recovery of H3R-induced Gβ1γ2 release to steady-state level upon washout [3]: < 20 min | Schild slope, VUF8328 (10 min) [4, 6]: 1.1 ± 0.1 | Schild slope, VUF8328 (0 min) [4, 7]: 1.4 ± 0.0 | Schild slope, Imetit (0 min) [4, 8]: 1.1 ± 0.0 | type of antagonism after 10 min re-equilibration [4]: surmountable | type of antagonism, response measured directly following agonist stimulation [4]: insurmountable antagonists | inhibition of Venus-Gβ1γ2 recruitment to masGRK3ct-Nluc in response to 1 µM histamine [1]: fully inhibited | time to full recovery of hH3R responsiveness following washout (hH3R [5]): > 30 min

Compound: CNC(=NCCSCc1csc(N=C(N)N)n1)NC#N [tiotidine]
inhibition of Venus-Gβ1γ2 recruitment to masGRK3ct-Nluc in response to 1 µM histamine [1]: ineffective

Compound: N=C(N)SCCc1cnc[nH]1 [Imetit]
EC50 [1]: 0.251 nM | agonist efficacy class in the Gβ1γ2 release assay [1]: full agonist | intrinsic activity (α) ([1]; mean ± S.E.M.): 1.1 ± 0.1 | pKi (hH3R [2]; agonists): 8.6

Compound: NCCc1c[nH]cn1 [Histamine, histamine]
pKi (hH3R [2]; agonists): 6.7

Compound: COc1ccc(CN(CCN(C)C)c2ccccn2)cc1 [mepyramine]
inhibition of Venus-Gβ1γ2 recruitment to masGRK3ct-Nluc in response to 1 µM histamine [1]: ineffective
